Target: T1, Cannabinoid-1 receptor (CB1R) (Rattus norvegicus, UniProt P20272)
T1 construct: The tissue obtained from the brain of SD rats was homogenized; from tissue; host or cells: brain of SD rats (membrane pellet of the homogenate)
Test: Cannabinoid-1 receptor (CB1R) binding affinity assay ([3H]CP-55940, rat CB-1 receptor binding protocol)
Conditions: brain tissue of SD rats, [3H]CP-55940, 30° C. 60 min; read-out: IC50

T1 sequence (P20272 whole entry): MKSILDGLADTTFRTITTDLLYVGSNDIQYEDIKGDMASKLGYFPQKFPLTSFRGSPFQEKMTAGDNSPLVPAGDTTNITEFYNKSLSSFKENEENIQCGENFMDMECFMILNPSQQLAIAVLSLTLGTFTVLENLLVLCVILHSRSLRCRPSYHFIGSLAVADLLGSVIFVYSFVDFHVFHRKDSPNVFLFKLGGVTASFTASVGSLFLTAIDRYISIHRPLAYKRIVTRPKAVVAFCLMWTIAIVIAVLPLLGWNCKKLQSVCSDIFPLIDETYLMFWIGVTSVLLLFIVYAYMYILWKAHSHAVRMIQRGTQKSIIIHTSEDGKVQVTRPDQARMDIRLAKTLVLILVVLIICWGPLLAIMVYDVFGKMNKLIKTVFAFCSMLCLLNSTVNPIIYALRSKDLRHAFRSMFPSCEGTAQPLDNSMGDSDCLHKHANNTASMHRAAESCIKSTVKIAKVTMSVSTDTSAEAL

`CC(C)(C)c1nnc(-c2nn(-c3ccc(Cl)cc3Cl)c(-c3ccc(Br)cc3)c2Cn2cnnn2)o1` [Example 303, 2-(4-((1H-tetrazol-1-yl)methyl)-5-(4-bromophenyl)-1-(2,4-dichlorophenyl)-1H-pyrazol-3-yl)-5-tert-butyl-1,3,4-oxadiazole] and `CC(C)(C)c1nnc(-c2nn(-c3ccc(Cl)cc3Cl)c(-c3ccc(Cl)cc3)c2Cn2ccnn2)o1` [Example 304, 2-(4-((1H-1,2,3-triazol-1-yl)methyl)-5-(4-chlorophenyl)-1-(2,4-dichlorophenyl)-1H-pyrazol-3-yl)-5-tert-butyl-1,3,4-oxadiazole] are within 1.5-fold of each other in IC50: 12 nM for the first, 12.8 nM for the second.

Going from `CC(C)(C)c1nnc(-c2nn(-c3ccc(Cl)cc3Cl)c(-c3ccc(Cl)cc3)c2CN2C(=O)CCC2=O)o1` [Example 305, 1-((3-(5-tert-butyl-1,3,4-oxadiazol-2-yl)-5-(4-chlorophenyl)-1-(2,4-dichlorophenyl)-1H-pyrazol-4-yl)methyl)pyrrolidine-2,5-dione] to `CC(C)(C)c1nnc(-c2nn(-c3ccc(Cl)cc3Cl)c(-c3ccc(Cl)cc3)c2CN2CCCC2=O)o1` [Example 306, 1-((3-(5-tert-butyl-1,3,4-oxadiazol-2-yl)-5-(4-chlorophenyl)-1-(2,4-dichlorophenyl)-1H-pyrazol-4-yl)methyl)pyrrolidin-2-one], the IC50 falls from 287 nM to 93.9 nM (3.1-fold).

First: CC(C)(C)c1nnc(-c2nn(-c3ccc(Cl)cc3Cl)c(-c3ccc(Cl)cc3)c2CN2CCOC2=O)o1 [Example 307, 3-((3-(5-tert-butyl-1,3,4-oxadiazol-2-yl)-5-(4-chlorophenyl)-1-(2,4-dichlorophenyl)-1H-pyrazol-4-yl)methyl)oxazolidin-2-one]
Second: CC(C)(C)c1nnc(-c2nn(-c3ccc(Cl)cc3Cl)c(-c3ccc(Cl)cc3)c2CC#N)o1 [Example 310, 2-(3-(5-tert-butyl-1,3,4-oxadiazol-2-yl)-5-(4-chlorophenyl)-1-(2,4-dichlorophenyl)-1H-pyrazol-4-yl)acetonitrile]
The IC50 of the first is 20-fold higher: 125 nM for the first, 6.12 nM for the second.

`CC(=O)SCc1c(-c2nnc(C(C)(C)C)o2)nn(-c2ccc(Cl)cc2Cl)c1-c1ccc(Cl)cc1` [Example 308, S-(3-(5-tert-butyl-1,3,4-oxadiazol-2-yl)-5-(4-chlorophenyl)-1-(2,4-dichlorophenyl)-1H-pyrazol-4-yl)methyl ethanethioate] and `CSCc1c(-c2nnc(C(C)(C)C)o2)nn(-c2ccc(Cl)cc2Cl)c1-c1ccc(SC)cc1` [Example 311, 2-tert-butyl-5-(1-(2,4-dichlorophenyl)-5-(4-(methylthio)phenyl)-4-(methylthiomethyl)-1H-pyrazol-3-yl)-1,3,4-oxadiazole] are within 1.5-fold of each other in IC50: 20.7 nM for the first, 25.8 nM for the second.

`Clc1ccc(-c2c(Cn3cncn3)c(-c3nnc(C4(c5ccc(Cl)cc5)CC4)o3)nn2-c2ccc(Cl)cc2Cl)cc1` [Example 313, 2-(4-((1H-1,2,4-triazol-1-yl)methyl)-5-(4-chlorophenyl)-1-(2,4-dichlorophenyl)-1H-pyrazol-3-yl)-5-(1-(4-chlorophenyl)cyclopropyl)-1,3,4-oxadiazole] and `COc1ccc(C2(c3nnc(-c4nn(-c5ccc(Cl)cc5Cl)c(-c5ccc(Cl)cc5)c4Cn4cncn4)o3)CC2)cc1` [Example 319, 2-(4-((1H-1,2,4-triazol-1-yl)methyl)-5-(4-chlorophenyl)-1-(2,4-dichlorophenyl)-1H-pyrazol-3-yl)-5-(1-(4-methoxyphenyl)cyclopropyl)-1,3,4-oxadiazole] are within 1.5-fold of each other in IC50: 2.21 nM for the first, 2.89 nM for the second.

`Clc1ccc(-c2c(Cn3cncn3)c(-c3nnc(C4CCC4)o3)nn2-c2ccc(Cl)cc2Cl)cc1` [Example 315, 2-(4-((1H-1,2,4-triazol-1-yl)methyl)-5-(4-chlorophenyl)-1-(2,4-dichlorophenyl)-1H-pyrazol-3-yl)-5-cyclobutyl-1,3,4-oxadiazole] and `Clc1ccc(-c2c(Cn3cncn3)c(-c3nnc(C4CCCCC4)o3)nn2-c2ccc(Cl)cc2Cl)cc1` [Example 316, 2-(4-((1H-1,2,4-triazol-1-yl)methyl)-5-(4-chlorophenyl)-1-(2,4-dichlorophenyl)-1H-pyrazol-3-yl)-5-cyclohexyl-1,3,4-oxadiazole] are the same in IC50: 3.42 nM for the first, 3.42 nM for the second.

Reference: patent US7875647B2, “Heteroaryl-pyrazole derivatives as cannabinoid CB1 receptor antagonists” (Green Cross Corporation, priority 2006, dated 2011)
